Patent publication USRE47689E1, “Compounds for treating spinal muscular atrophy” (PTC Therapeutics, Inc., priority 2011, dated 2019)

What was measured:
[1] = test system: Smn protein; assay: Smn protein assay in cultured cells (SMN HTRF); format: cell-based, human; settings: 48 hours; for EC1.5x (concentration giving 1.5-fold Smn protein increase): SMA Type 1 patient fibroblast cells (GM03813), 7-point concentration curve, SMN HTRF, concentration producing 1.5 times Smn protein vs DMSO vehicle control, read-out: EC1.5x for Smn protein expression; for maximum fold (Fold) increase of Smn protein: SMA patient fibroblast cells, 7-point concentration data, fold increase relative to vehicle control (SMN HTRF)
Outline: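 Lysates in RIPA with protease inhibitors are incubated overnight at room temperature with HTRF anti-SMN antibodies. EC1.5x is derived from fold increase in ΔF over vehicle.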

[2] = test system: SMN2 minigene (full length SMN2 minigene mRNA containing SMN2 exon 7); assay: SMN2 minigene mRNA splicing RT-qPCR assay in cultured cells; format: cell-based, human; settings: Homo sapiens, HEK293-H; HEK293H cells stably transfected with SMN2-A minigene; 24 hours; 7-point concentration curve; 1.5-fold relative to vehicle-treated cells; read-out: EC1.5x for production of full length SMN2 mRNA
Outline: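 Read-out: full-length (exon 7-included) SMN2 minigene mRNA by multiplex RT-qPCR with GAPDH, efficiency-corrected (1+E)^−Ct, GAPDH-normalized and divided by vehicle. Stably transfected HEK293H cells, 24 h compound exposure, duplicates per concentration. Value is EC1.5x, reported as star ranges.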

melting point	SMILES	EC1.5x (concentration giving 1.5-fold Smn protein increase) [1]	maximum fold (Fold) increase of Smn protein [1]	EC (1.5-fold) [2]
224 to 234 °C	Cc1cn2cc(-c3cc4ccc(C5CCN(CCCF)CC5)cc4oc3=O)nc2cn1 [Compound 917, 7-[1-(3-fluoropropyl)piperidin-4-yl]-3-(6-methylimidazo[1,2-a]pyrazin-2-yl)-2H-chromen-2-one]	< 300 nM	***** (fold increase >1.65)	< 0.1 µM
141 to 143 °C	COc1ccc(-c2cc3ccc(N4CCN[C@@H](C)C4)cc3oc2=O)cc1F [Compound 545, 3-(3-fluoro-4-methoxyphenyl)-7-[(3S)-3-methylpiperazin-1-yl]-2H-chromen-2-one]	–	*** (fold increase between >1.35 and ≤1.5)	0.1 to 0.3 µM
101 to 103 °C	COc1ccc(-c2cc3ccc(N4CCN[C@H](C)C4)cc3oc2=O)c(OC)c1 [Compound 466, 3-(2,4-dimethoxyphenyl)-7-[(3R)-3-methylpiperazin-1-yl]-2H-chromen-2-one]	–	* (maximum fold increase of ≤1.2)	3 to 30 µM
251 to 259 °C	COc1ccn2cc(-c3cc4ccc(N5CCN(C)CC5)cc4oc3=O)nc2c1 [Compound 435, 3-(7-methoxyimidazo[1,2-a]pyridin-2-yl)-7-(4-methylpiperazin-1-yl)-2H-chromen-2-one]	–	* (maximum fold increase of ≤1.2)	1 to 3 µM
138 to 140 °C	Cc1cccn2cc(-c3cc4ccc(N5CCCN(C)CC5)cc4oc3=O)nc12 [Compound 246, 7-(4-methyl-1,4-diazepan-1-yl)-3-(8-methylimidazo[1,2-a]pyridin-2-yl)-2H-chromen-2-one]	1000 to 3000 nM	*** (fold increase between >1.35 and ≤1.5)	0.1 to 0.3 µM
244 to 254 °C	Cc1cc(F)c2nc(-c3cc4ccc(N5CCNC6(CCC6)C5)cc4oc3=O)cn2c1 [Compound 598, 7-(5,8-diazaspiro[3.5]non-8-yl)-3-(8-fluoro-6-methylimidazo[1,2-a]pyridin-2-yl)-2H-chromen-2-one]	–	*** (fold increase between >1.35 and ≤1.5)	0.1 to 0.3 µM
256 to 260 °C	O=c1oc2cc(N3CCNCC3)cc(F)c2cc1-c1nc2ccccc2s1 [Cpd 160, 3-(1,3-benzothiazol-2-yl)-5-fluoro-7-(piperazin-1-yl)-2H-chromen-2-one]	–	* (maximum fold increase of ≤1.2)	0.3 to 1 µM
155 to 157 °C	CN(C)CCN(C)c1ccc2cc(-c3nc4ccccc4s3)c(=O)oc2c1 [Compound 146, 3-(1,3-benzothiazol-2-yl)-7-{[2-(dimethylamino)ethyl](methyl)amino}-2H-chromen-2-one]	–	* (maximum fold increase of ≤1.2)	0.3 to 1 µM
292 to 296 °C	Cc1ccn2cc(-c3cc4ccc(O[C@@H]5CCNC5)cc4oc3=O)nc2n1.Cl.Cl [Compound 322, 3-(7-methylimidazo [1,2-a]pyrimidin-2-yl)-7-[(3R)-pyrrolidin-3-yloxy]-2H-chromen-2-one hydrochloride (1:2)]	–	** (fold increase between >1.2 and ≤1.35)	0.3 to 1 µM
250 to 252 °C	C[C@@H]1CN(c2ccc3cc(-c4cn5cnccc5n4)c(=O)oc3c2)C[C@H](C)N1 [Compound 459, 7-[(3R,5S)-3,5-dimethylpiperazin-1-yl]-3-(imidazo[1,2-c]pyrimidin-2-yl)-2H-chromen-2-one]	3000 to 10000 nM	*** (fold increase between >1.35 and ≤1.5)	< 0.1 µM
